Test results reported in ChEMBL document CHEMBL1128147, “Mechanistic support for the stepwise process for inactivation of class A -lactamases by clavulanate” (Bioorg Med Chem Lett, 1995).
Each block holds one molecule with its values, some of them ahead of it.

Columns and labels:
[1] = Partition ratio between Kcat (for beta lactamase) and Kinact (for beta lactamase) was determined
[2] = system: Beta-lactamase TEM (Escherichia coli); test: Effect on rate of recovery of TEM-2 beta lactamase from transient inhibition
[3] = target: Beta-lactamase (Enterobacter cloacae) (UniProt P05364)
Sequence of Beta-lactamase (Enterobacter cloacae) (P05364 21-381 limits assumed): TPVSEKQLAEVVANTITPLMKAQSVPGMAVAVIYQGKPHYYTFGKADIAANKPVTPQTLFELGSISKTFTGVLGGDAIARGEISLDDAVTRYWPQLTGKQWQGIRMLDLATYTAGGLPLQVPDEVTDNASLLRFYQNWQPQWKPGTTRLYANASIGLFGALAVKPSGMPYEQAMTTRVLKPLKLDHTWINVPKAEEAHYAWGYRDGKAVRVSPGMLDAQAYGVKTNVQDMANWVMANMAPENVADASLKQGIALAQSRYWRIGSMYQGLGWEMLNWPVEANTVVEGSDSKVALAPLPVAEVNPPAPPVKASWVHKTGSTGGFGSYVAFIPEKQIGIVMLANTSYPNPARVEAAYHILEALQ
Description: Kcat for inactivation of TEM-1 beta-lactamase

[4] = target: Beta-lactamase (Enterobacter cloacae) (UniProt P05364); remark: listed apart in the source
Description: Ks for inactivation of TEM-1 beta-lactamase

[5] = target: Beta-lactamase (Enterobacter cloacae) (UniProt P05364); remark: listed apart in the source
Description: K3 for inactivation of TEM-1 beta-lactamase

[6] = Partition ratio between Kcat and Kinact was determined
[7] = target: Beta-lactamase (Enterobacter cloacae) (UniProt P05364); remark: listed apart in the source
Description: K2 for inactivation of TEM-1 beta-lactamase

Ratio [1]: 390
Structure (SMILES): C/C=C1\O[C@@H]2CC(=O)N2[C@H]1C(=O)O

Rate of recovery [2]: 0.002 s⁻¹
Structure (SMILES): O=C1C[C@H]2O/C(=C\CO)[C@H](CO)N12

k cat [3]: 8 s⁻¹
Ks [4]: 11.6 µM
K3 [5]: 10 s⁻¹
Ratio [6]: 3.7e+06
K2 [7]: 42 s⁻¹
Structure (SMILES): O=C(O)[C@H]1C(CCO)O[C@@H]2CC(=O)N21 (some centres not stated)
